Among the data in patent US20240246937A1 (MERCK SHARP & DOHME LLC, priority 2021, published 2024) are EC50 values, retold here.

The structures appear in SMILES notation.

The experiment addresses recombinant IL4I1 (Homo sapiens (Human), UniProt Q96RQ9). The experiment can be described thus: IL4I1 Enzymatic Assay (Amplex Red/HRP coupled fluorescence detection of H2O2). In kind it is biochemical. Particulars: 240 min; recombinant IL4I1, four-hour pre-incubation with compound. In outline:
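Ten-point, 1:3 compound titrations were fitted by four-parameter sigmoidal regression to give EC50. Resorufin fluorescence (544/590 nm) from Amplex Red/HRP-coupled H2O2 detection was read 120 min after adding 1 mM each aromatic amino acid to 1 nM IL4I1, following a 4 h compound pre-incubation in pH 7.0 Hepes buffer.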

recombinant IL4I1, sequence (Q96RQ9 22-567): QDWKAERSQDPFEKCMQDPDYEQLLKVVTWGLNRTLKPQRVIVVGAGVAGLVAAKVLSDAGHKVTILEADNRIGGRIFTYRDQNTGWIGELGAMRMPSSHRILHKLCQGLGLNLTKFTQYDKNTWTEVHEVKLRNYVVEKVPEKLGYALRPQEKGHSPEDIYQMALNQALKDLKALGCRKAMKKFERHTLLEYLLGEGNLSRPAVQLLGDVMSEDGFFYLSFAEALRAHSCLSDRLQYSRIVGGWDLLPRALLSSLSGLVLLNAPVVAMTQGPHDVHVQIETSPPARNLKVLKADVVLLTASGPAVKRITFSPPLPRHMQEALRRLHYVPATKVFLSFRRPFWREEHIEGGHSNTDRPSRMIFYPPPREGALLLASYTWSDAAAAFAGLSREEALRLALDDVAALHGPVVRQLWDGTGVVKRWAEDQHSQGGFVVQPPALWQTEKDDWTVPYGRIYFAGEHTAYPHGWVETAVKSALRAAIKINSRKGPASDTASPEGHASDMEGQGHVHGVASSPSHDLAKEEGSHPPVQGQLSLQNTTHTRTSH

On to `CC1(n2ccn(Cc3cn(-c4ccccn4)nn3)c(=O)c2=O)CC1` [Example 430, 1-(1-methylcyclopropyl)-4-((1-(pyridin-2-yl)-1H-1,2,3-triazol-4-yl)methyl)-1,4-dihydropyrazine-2,3-dione], for which the EC50 is 183 nM.

Turning to `N#CC1(n2ccn(Cc3cn(-c4cccnc4)nn3)c(=O)c2=O)CC1` [Example 431, 1-(2,3-dioxo-4-((1-(pyridin-3-yl)-1H-1,2,3-triazol-4-yl)methyl)-3,4-dihydropyrazin-1(2H)-yl)cyclopropane-1-carbonitrile], the EC50 came to 130 nM.

For the molecule `O=C1C(=O)N(C2CCC2)CCN1Cc1noc(-c2ccccn2)c1Br` [Example 432, 1-((4-bromo-5-(pyridin-2-yl)isoxazol-3-yl)methyl)-4-cyclobutylpiperazine-2,3-dione], the EC50 amounted to 17 nM.

Consider `O=C1C(=O)N(c2ccccn2)CCN1Cc1ccc(-c2ccccc2)nn1` [Example 433, 1-((6-phenylpyridazin-3-yl)methyl)-4-(pyridin-2-yl)piperazine-2,3-dione], for which the EC50 was found to be 37 nM.

As to `O=C1C(=O)N(C2CC(O)C2)CCN1Cc1ccc(-c2ccccc2F)nn1` (stereo not shown) [Example 434, 1-((6-(2-fluorophenyl)pyridazin-3-yl)methyl)-4-(3-hydroxycyclobutyl)piperazine-2,3-dione], the 50% effective concentration (EC50) came to 71 nM.

For `N#Cc1ccccc1-c1nnc(CN2CCN(C34CC(C3)C4)C(=O)C2=O)s1` [Example 436, 2-(5-((4-(bicyclo[1.1.1]pentan-1-yl)-2,3-dioxopiperazin-1-yl)methyl)-1,3,4-thiadiazol-2-yl)benzonitrile], the EC50 was 20 nM.

For `O=C1C(=O)N(C23CC(C2)C3)CCN1Cc1cn(-c2ccccc2)nn1` [Example 439, 1-(bicyclo[1.1.1]pentan-1-yl)-4-((1-phenyl-1H-1,2,3-triazol-4-yl)methyl)piperazine-2,3-dione], the EC50 was 9 nM.
